In the supplement of paper PMC9663587:

Tests used:
Assay in all cases: GRmax, 72 h; higher = less effect;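 note: breast cell lines in 384-well plates, nine doses across a 10^4 range, Dye Drop imaging of viable cells vs DMSO and time-zero plates, GR 0 means no net growth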
SUM1315 = system: SUM1315
AU565 = system: AU565
T47D = system: T47D
MDAMB436 = system: MDAMB436
CAL51 = system: CAL51
MDAMB468 = system: MDAMB468
UACC812 = system: UACC812
CAMA1 = system: CAMA1
ZR7530 = system: ZR7530
PDXHCI002 = system: PDXHCI002
HCC1395 = system: HCC1395

Compound | GRmax, 72 h (SUM1315) [GR] | GRmax, 72 h (AU565) [GR] | GRmax, 72 h (T47D) [GR] | GRmax, 72 h (MDAMB436) [GR] | GRmax, 72 h (CAL51) [GR] | GRmax, 72 h (MDAMB468) [GR] | GRmax, 72 h (UACC812) [GR] | GRmax, 72 h (CAMA1) [GR] | GRmax, 72 h (ZR7530) [GR] | GRmax, 72 h (PDXHCI002) [GR] | GRmax, 72 h (HCC1395) [GR]
CC(C)n1nc(-c2ccc3oc(N)nc3c2)c2c(N)ncnc21 [INK128/MLN0128] (max 3.162 µM) | 0.0256 | -0.496 | -0.0486 | 0.211 | 0.0529 | 0.0572 | -0.707 | -0.0962 | -0.109 | 0.229 | -0.0258
CC(C)NC[C@@H](C(=O)N1CCN(c2ncnc3c2[C@H](C)C[C@H]3O)CC1)c1ccc(Cl)cc1 [Ipatasertib/GDC0068] (max 10 µM) | 0.607 | 0.274 | 0.133 | 0.611 | 0.387 | 0.309 | 0.0704 | -0.236 | 0.438 | 1.1 | 0.19
CN(C)C(=O)c1cc2cnc(Nc3ccc(N4CCNCC4)cn3)nc2n1C1CCCC1 [LEE011/Ribociclib] (max 10 µM) | 0.444 | 0.244 | 0.15 | 0.951 | 0.385 | 0.947 | 0.0889 | 0.122 | 0.41 | 0.508 | 0.403
CCNC(=O)c1noc(-c2cc(C(C)C)c(O)cc2O)c1-c1ccc(CN2CCOCC2)cc1 [Luminespib/NVP-AUY922] (max 1 µM) | -0.081 | -0.231 | 0.0212 | -0.0492 | -0.339 | -0.174 | -0.521 | -0.0698 | 0.1 | -0.281 | -0.152
CCOc1cc2ncc(C#N)c(Nc3ccc(OCc4ccccn4)c(Cl)c3)c2cc1NC(=O)/C=C/CN(C)C [Neratinib/HKI272] (max 3.162 µM) | 0.114 | -0.638 | 0.195 | 0.0162 | 0.28 | -0.383 | -0.756 | 0.449 | -0.532 | -0.161 | 0.0167
O=C(c1cc(Cc2n[nH]c(=O)c3ccccc23)ccc1F)N1CCN(C(=O)C2CC2)CC1 [Olaparib/AZD2281] (max 10 µM) | 0.0911 | 0.572 | 0.53 | 0.238 | 0.36 | 0.341 | 0.199 | 0.679 | 0.653 | 0.265 | 0.0945
CC(=O)O[C@H]1C(=O)[C@@]2(C)[C@H]([C@H](OC(=O)c3ccccc3)[C@]3(O)C[C@H](OC(=O)[C@H](O)[C@@H](NC(=O)c4ccccc4)c4ccccc4)C(C)=C1C3(C)C)[C@]1(OC(C)=O)CO[C@@H]1C[C@@H]2O [Paclitaxel] (max 1 µM) | -0.326 | -0.498 | -0.134 | -0.218 | -0.22 | -0.522 | -0.852 | -0.494 | -0.597 | -0.512 | -0.458
CS(=O)(=O)N1CCN(Cc2cc3nc(-c4cccc5[nH]ncc45)nc(N4CCOCC4)c3s2)CC1 [Pictilisib/GDC0941] (max 10 µM) | 0.13 | -0.405 | -0.147 | 0.285 | 0.0266 | -0.0613 | -0.601 | -0.237 | -0.342 | -0.0101 | -0.0143
O=C1NC(=NCc2cccs2)SC1=Cc1ccc2ncccc2c1 [R0-3306] (max 10 µM) | -0.252 | -0.185 | -0.0261 | 0.0289 | 0.232 | -0.271 | -0.171 | 0.0254 | 0.065 | 0.0529 | -0.235
CNCc1ccc(-c2[nH]c3cc(F)cc4c3c2CCNC4=O)cc1 [Rucaparib] (max 10 µM) | 0.0259 | 0.718 | 0.854 | 0.222 | 0.704 | 0.345 | 0.661 | 0.789 | 0.674 | 0.516 | 0.234
CC1(N)CCN(c2cnc(-c3cccc(Cl)c3Cl)c(N)n2)CC1 [SHP099] (max 10 µM) | 0.523 | 0.97 | 0.879 | 0.941 | 0.904 | 0.567 | 0.651 | 0.779 | 0.715 | 0.63 | 0.548
CN1CCN(CCOc2cc(OC3CCOCC3)c3c(Nc4c(Cl)ccc5c4OCO5)ncnc3c2)CC1 [Saracatinib/AZD0530] (max 10 µM) | 0.0846 | 0.147 | 0.389 | 0.724 | 0.258 | 0.178 | -0.847 | 0.774 | -0.159 | 0.0015 | 0.12
Cc1cc(C(C)Nc2ccccc2)c2nc(N3CCOCC3)cc(=O)n2c1 (centres undefined) [TGX221] (max 10 µM) | 0.705 | 0.607 | 0.799 | 0.722 | 0.91 | 0.723 | 0.0432 | 0.85 | 0.925 | 0.855 | 0.458
CN(C)C/C=C/C(=O)Nc1ccc(C(=O)Nc2cccc(Nc3ncc(Cl)c(-c4c[nH]c5ccccc45)n3)c2)cc1 [THZ1] (max 1 µM) | -0.906 | -0.64 | -0.279 | -0.0798 | 0.107 | -0.377 | -0.348 | -0.486 | -0.638 | -0.193 | -0.784
